Data published in US7202280B2, “Methods for the treatment and prevention of pancreatitis and for induction of liver regeneration” (priority 2002, dated 2007).

How the values were obtained:
[1] = tested on: syngenic and metallothionein-SSAT mice; experiment: Hepatic, pancreatic and renal polyamine concentration in syngenic and metallothionein-SSAT mice after analogue; format: in vivo, mouse; details: Tg mice, 24 h
Method: (§1) α-methylspermidine, Bis-α-methylspermine and α-methylspermine were administered in saline. […] The data are expressed as means ±S.D. For statistical analysis, the two-tailed Student's t test was used.

[2] = tested on: syngenic and UKU181 transgenic mice; experiment: Plasma α-amylase and ALAT in syngenic and transgenic mice after analogue injection; format: in vivo, mouse; details: 24 h; for Plasma α-amylase: not corrected constant
Method: as §1

CC(N)CCNCCCCN (stereo not drawn) [α-methylspermidine, 1-methylspermidine]
pancreatic Spermine ([1]; 50 mg/kg): 224.17 pmoles/mg tissue wet weight | pancreatic α-Methyl-spermidine ([1]; 50 mg/kg): 627.87 pmoles/mg tissue wet weight | renal N^1-Acetylspermidine ([1]; 50 mg/kg): 49.14 pmoles/mg tissue wet weight | renal Putrescine ([1]; 50 mg/kg): 179.10 pmoles/mg tissue wet weight | renal Spermidine ([1]; 50 mg/kg): 231.02 ± 15.59 pmoles/mg tissue wet weight | renal Spermine ([1]; 50 mg/kg): 896.89 ± 25.61 pmoles/mg tissue wet weight | renal α-Methylspermidine ([1]; 50 mg/kg): 133.67 pmoles/mg tissue wet weight | hepatic N^1-Acetyl-spermidine ([1]; 100 mg/kg): 293.66 pmoles/mg tissue wet weight | hepatic Putrescine ([1]; 100 mg/kg): 834.88 pmoles/mg tissue wet weight | hepatic Spermidine ([1]; 100 mg/kg): 286.11 pmoles/mg tissue wet weight | hepatic Spermine ([1]; 100 mg/kg): 97.52 ± 52.21 pmoles/mg tissue wet weight | hepatic α-Methyl-spermidine ([1]; 100 mg/kg): 676.44 pmoles/mg tissue wet weight | pancreatic N^1-Acetyl-spermidine ([1]; 100 mg/kg): 656.51 pmoles/mg tissue wet weight | pancreatic Putrescine ([1]; 100 mg/kg): 4467.46 pmoles/mg tissue wet weight | pancreatic Spermidine ([1]; 100 mg/kg): 1539.88 ± 351.44 pmoles/mg tissue wet weight | pancreatic Spermine ([1]; 100 mg/kg): 211.73 pmoles/mg tissue wet weight | pancreatic α-Methyl-spermidine ([1]; 100 mg/kg): 731.63 pmoles/mg tissue wet weight | renal N^1-Acetylspermidine ([1]; 100 mg/kg): 65.00 pmoles/mg tissue wet weight | renal Putrescine ([1]; 100 mg/kg): 133.86 pmoles/mg tissue wet weight | renal Spermidine ([1]; 100 mg/kg): 212.40 ± 10.9 pmoles/mg tissue wet weight | renal Spermine ([1]; 100 mg/kg): 840.58 ± 67.32 pmoles/mg tissue wet weight | renal α-Methylspermidine ([1]; 100 mg/kg): 136.61 pmoles/mg tissue wet weight | hepatic N^1-Acetyl-spermidine ([1]; 150 mg/kg): 230.96 pmoles/mg tissue wet weight | hepatic Putrescine ([1]; 150 mg/kg): 603.18 pmoles/mg tissue wet weight | hepatic Spermidine ([1]; 150 mg/kg): 260.13 pmoles/mg tissue wet weight | hepatic Spermine ([1]; 150 mg/kg): 79.41 ± 25.11 pmoles/mg tissue wet weight | hepatic α-Methyl-spermidine ([1]; 150 mg/kg): 1206.94 pmoles/mg tissue wet weight | pancreatic N^1-Acetyl-spermidine ([1]; 150 mg/kg): 185.50 pmoles/mg tissue wet weight | pancreatic Putrescine ([1]; 150 mg/kg): 4457.91 pmoles/mg tissue wet weight | pancreatic Spermidine ([1]; 150 mg/kg): 1244.49 ± 565.07 pmoles/mg tissue wet weight | pancreatic Spermine ([1]; 150 mg/kg): 213.86 pmoles/mg tissue wet weight | pancreatic α-Methyl-spermidine ([1]; 150 mg/kg): 942.74 pmoles/mg tissue wet weight | renal N^1-Acetylspermidine ([1]; 150 mg/kg): 41.78 pmoles/mg tissue wet weight | renal Putrescine ([1]; 150 mg/kg): 119.47 pmoles/mg tissue wet weight | renal Spermidine ([1]; 150 mg/kg): 201.24 ± 19.1 pmoles/mg tissue wet weight | renal Spermine ([1]; 150 mg/kg): 721.39 ± 64.84 pmoles/mg tissue wet weight | renal α-Methylspermidine ([1]; 150 mg/kg): 148.99 pmoles/mg tissue wet weight | hepatic N^1-Acetyl-spermidine ([1]; 250 mg/kg): 211.54 pmoles/mg tissue wet weight | hepatic Putrescine ([1]; 250 mg/kg): 444.97 pmoles/mg tissue wet weight | hepatic Spermidine ([1]; 250 mg/kg): 199.53 pmoles/mg tissue wet weight | hepatic Spermine ([1]; 250 mg/kg): 36.38 ± 9.89 pmoles/mg tissue wet weight | hepatic α-Methyl-spermidine ([1]; 250 mg/kg): 1293.76 pmoles/mg tissue wet weight | pancreatic N^1-Acetyl-spermidine ([1]; 250 mg/kg): 137.01 pmoles/mg tissue wet weight | pancreatic Putrescine ([1]; 250 mg/kg): 4637.87 pmoles/mg tissue wet weight | pancreatic Spermidine ([1]; 250 mg/kg): 967.83 ± 396.04 pmoles/mg tissue wet weight | pancreatic Spermine ([1]; 250 mg/kg): 157.23 pmoles/mg tissue wet weight | pancreatic α-Methyl-spermidine ([1]; 250 mg/kg): 1166.56 pmoles/mg tissue wet weight | renal N^1-Acetylspermidine ([1]; 250 mg/kg): 48.47 pmoles/mg tissue wet weight | renal Putrescine ([1]; 250 mg/kg): 103.63 pmoles/mg tissue wet weight | renal Spermidine ([1]; 250 mg/kg): 185.82 ± 18.56 pmoles/mg tissue wet weight | renal Spermine ([1]; 250 mg/kg): 597.01 ± 91.36 pmoles/mg tissue wet weight | renal α-Methylspermidine ([1]; 250 mg/kg): 169.73 pmoles/mg tissue wet weight | hepatic N^1-Acetyl-spermidine ([1]; 375 mg/kg): 252.33 pmoles/mg tissue wet weight | hepatic Putrescine ([1]; 375 mg/kg): 861.39 pmoles/mg tissue wet weight | hepatic Spermidine ([1]; 375 mg/kg): 168.25 pmoles/mg tissue wet weight | hepatic Spermine ([1]; 375 mg/kg): 41.95 ± 8.02 pmoles/mg tissue wet weight | hepatic α-Methyl-spermidine ([1]; 375 mg/kg): 1012.46 pmoles/mg tissue wet weight | pancreatic N^1-Acetyl-spermidine ([1]; 375 mg/kg): 95.41 pmoles/mg tissue wet weight | pancreatic Putrescine ([1]; 375 mg/kg): 4826.59 pmoles/mg tissue wet weight | pancreatic Spermidine ([1]; 375 mg/kg): 1002.33 ± 365.29 pmoles/mg tissue wet weight | pancreatic Spermine ([1]; 375 mg/kg): 122.49 pmoles/mg tissue wet weight | pancreatic α-Methyl-spermidine ([1]; 375 mg/kg): 1378.62 pmoles/mg tissue wet weight | renal N^1-Acetylspermidine ([1]; 375 mg/kg): 44.65 pmoles/mg tissue wet weight | renal Putrescine ([1]; 375 mg/kg): 127.41 pmoles/mg tissue wet weight | renal Spermidine ([1]; 375 mg/kg): 173.73 ± 13.69 pmoles/mg tissue wet weight | renal Spermine ([1]; 375 mg/kg): 580.26 ± 51.87 pmoles/mg tissue wet weight | renal α-Methylspermidine ([1]; 375 mg/kg): 192.90 pmoles/mg tissue wet weight | Plasma ALAT ([2]; Sg mice, 50 mg/kg): 17.90 U/dm^3 | Plasma α-amylase ([2]; Sg mice, 50 mg/kg): 266.76 ± 23.00 ^+ U/dm^3 | Plasma ALAT ([2]; Sg mice, 100 mg/kg): 19.21 U/dm^3 | Plasma α-amylase ([2]; Sg mice, 100 mg/kg): 281.81 ± 24.11 U/dm^3 | Plasma ALAT ([2]; Sg mice, 150 mg/kg): 18.33 U/dm^3 | Plasma α-amylase ([2]; Sg mice, 150 mg/kg): 284.83 ± 26.90 U/dm^3 | Plasma ALAT ([2]; Sg mice, 250 mg/kg): 66.00 U/dm^3 | Plasma α-amylase ([2]; Sg mice, 250 mg/kg): 287.41 ± 74.99 U/dm^3 | Plasma ALAT ([2]; Sg mice, 375 mg/kg): 111.39 U/dm^3 | Plasma α-amylase ([2]; Sg mice, 375 mg/kg): 654.32 ± 402.95 U/dm^3 | Plasma ALAT ([2]; Sg mice, 500 mg/kg): 32.74 U/dm^3 | Plasma α-amylase ([2]; Sg mice, 500 mg/kg): 370.45 ± 104.58 U/dm^3 | Plasma ALAT ([2]; Tg mice, 50 mg/kg): 34.92 U/dm^3 | Plasma α-amylase ([2]; Tg mice, 50 mg/kg): 341.62 ± 44.99 U/dm^3 | Plasma ALAT ([2]; Tg mice, 100 mg/kg): 44.96 U/dm^3 | Plasma α-amylase ([2]; Tg mice, 100 mg/kg): 302.90 ± 29.54 U/dm^3 | Plasma ALAT ([2]; Tg mice, 150 mg/kg): 41.90 U/dm^3 | Plasma α-amylase ([2]; Tg mice, 150 mg/kg): 275.79 ± 34.37 U/dm^3 | Plasma ALAT ([2]; Tg mice, 250 mg/kg): 34.05 U/dm^3 | Plasma α-amylase ([2]; Tg mice, 250 mg/kg): 389.38 ± 213.31 U/dm^3 | Plasma ALAT ([2]; Tg mice, 375 mg/kg): 52.38 U/dm^3 | Plasma α-amylase ([2]; Tg mice, 375 mg/kg): 314.51 ± 20.72 U/dm^3
